Experimental data: PubChem BioAssay AID179 (DTP/NCI, 2004)
Where “and” joins values, the source holds several entries; their conditions need not be identical. Equal entries are not always repeated. Calls of active or inactive are those of the source.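 How the source made its calls: active means compounds giving half or more protection of infected cells from virus-caused growth loss, again on retest; inactive means the rest.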

Tested on: CEM cells HIV-1 protection, formazan growth assay
Test: NCI AIDS Antiviral Assay
Settings: for IC50: measured here: growth of uninfected CEM cells
How it was run: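 Screen of anti-HIV-1 activity in human CEM cells using a formazan-based growth measurement at five drug concentrations. Hits with 50% or greater protection were repeated, and confirmation required reproducible complete protection.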

Compound	outcome	EC50 [µM]	IC50
O=C1c2cccc3c2C(=O)c2c(cccc21)OCCOCCOCCOCCO3	inactive		
CCN(CC)Cc1c2c(O)c3c(O)c(C)c4c(c3c1O)C(=O)C(C)(O/C=C/C(OC)C(C)C(OC(C)=O)C(C)C(O)C(C)C(O)C(C)/C=C/C=C(\C)C(=O)N2)O4 (configuration not stated)		> 200	33.1 µM
COc1cc2c(c(C3C(=O)N(C)c4ccc(Br)cc43)c1OC)OCO2 (configuration not stated)		> 200	> 200 µM
CC(=O)NC1=N/C(=C\c2ccc(Cl)cc2)C(=O)N1/C=C1\C(=O)Oc2ccccc2C1=O		> 200	87.1 µM
COC(=O)C(Cc1ccccc1)NC(=O)C(CNC(=O)OCc1ccccc1)C(=O)OCc1ccccc1 (configuration not stated)		> 200	> 200 µM and 148 µM
CC1(C)C(=O)/C=C\C(=O)C(C)(C)C(=O)/C=C\C(=O)C(C)(C)C(=O)/C=C\C(=O)C(C)(C)C(=O)/C=C\C1=O	inactive		
O=C1c2cc(Cl)ccc2OC2CCON12 (configuration not stated)		> 200	> 200 µM
CSC1=N/C(=C\c2ccc(Cl)cc2)C(=O)N1CN1CCCCC1		> 200	> 200 µM
CCOC(=O)c1c(NC(=S)Nc2ccc(Cl)cc2)sc2c1CCN(C)C2		> 100	> 100 µM
NC(N)=NCCCC(N)C(=O)O (configuration not stated)		> 200	> 200 µM
CC(C)(C)C(=O)OCOP(=O)(OCOC(=O)C(C)(C)C)OCC1OC(n2cc(F)c(=O)[nH]c2=O)CC1O (configuration not stated)		> 151	2.09 µM
COc1cc(C2c3cccc4cccc(c34)C3CCC(=O)N32)cc(O)c1O (configuration not stated)		3.02	9.33 µM
Cc1cc(C(=O)O)c(C)cc1SSc1cc(C)c(C(=O)O)cc1C		> 105	75.9 µM
CCCC1(CCCNC(=O)c2ccccc2)OCc2ccccc2CO1		> 513	> 513 µM
O=c1[nH]c2c(c(=O)[nH]1)SSC2		> 200	0.631 µM
CCOC(=O)/C(=C\c1cccc(C)c1)C(C)=O		> 407	63.1 µM
COc1ccc(NC(=O)CC/C(CC(=O)C(C)(C)C)=N\NC(=O)C(=O)NN)cc1	inactive		
Cc1ccc(C)c(C(=O)CC2OC(O)C(Cl)C2Cl)c1 (configuration not stated)		> 117	64.6 µM

Compound	outcome	EC50 [µM]	IC50
CC(=S)NC=C(C(N)=O)C(N)=O		> 200	> 200 µM
C=CCc1cc(OC)c(O)c(C(=O)/C=C/c2ccc(OC)c(OC)c2)c1		> 14.8	> 14.8 µM
O=c1[nH]c(NCCCCCO)nc2nc[nH]c12		> 200	> 200 µM
N#Cc1nc(CCC(c2nc(C#N)c(N)o2)N2C(=O)c3ccccc3C2=O)oc1N (configuration not stated)		> 200	> 200 µM
COc1ccc2c(c1OC)C(=O)N/C2=C\c1c(CCN(C)C)cc2c(c1OC)OCO2		> 200	> 100 µM
O=C(C(=O)C(=O)C(=O)C1C(=O)c2ccccc2C1=O)C(=O)C(=O)C1C(=O)c2ccccc2C1=O	inactive		
Cc1ccc(C)c(NC(=O)CC2Sc3ccccc3NC2=O)c1 (configuration not stated)		> 30.2	> 30.2 µM
O=C1c2ccccc2-c2nnc(-c3ccccc3)cc21		> 100	8.32 µM
CCOC(=O)NC(C(F)(F)F)(C(F)(F)F)P(=O)(OCC)OCC		> 200	11.5 µM
C[CH2][Sn]([Cl])([CH2]C)[CH2]C	inactive		
Nc1nc2c(ncn2C2CCC(CO)OC2)c(=O)[nH]1 (configuration not stated)		145	> 200 µM
Cc1[nH]c2c(C)c3c([nH]c4ccc(Cl)cc43)c(C)c2c(=O)c1C		> 17	9.77 µM
CCOC(=O)NC1=C(N2CC2)C(=O)C(NC(=O)OCC)=C(N2CC2)C1=O		> 24.5	6.46 µM
CCOC(=O)c1cncc(C#N)c1		> 200	105 µM
N#Cc1[nH]c(=O)n(-c2cccc3ccccc23)c1N		> 200	> 200 µM
CCOC(=O)C(CCC1OCCO1)C(C)=O (configuration not stated)		> 200	> 200 µM
O=C1OCC(CN2CCC(n3c(=O)[nH]c4ccccc43)CC2)=C1c1ccccc1		> 200	30.9 µM
CC(=N\N)/C(C)=N/N=C(C)/C(C)=N/N=C(C)/C(C)=N/N		> 200	178 µM
